# Laboratory results published in patent publication US20080090734A1, “DRUG SCREENING AND TARGET IDENTIFICATION USING SPR IMAGING OF TARGET PROTEIN ARRAYS” (The Trustees of California State University, priority 2006, published 2008).
# Test system: A. baumannii clinical isolate LAC 12
# Test: Antibiotic susceptibility profile
# Format: cell-based, Acinetobacter baumannii
# Set-up: key: Resistance; Intermediate; Susceptible
# Settings: not given
# Excerpt: (§1) We obtained over thirty clinical isolates of A. baumannii from nosocomial infections in New York City and Los Angeles. […] Only antibiotics with breakpoints for A. baumannii were used. […] Isolates LA 01 to 20 were acquired from Los Angels County while NY-A to NY-H were obtained from New York City.
# (§2) Antibiotic susceptibility profiles of clinical isolates of A. baumannii and reference strains. R, I, and S denote Resistance, Intermediate and Susceptible, respectively. Genetic Profiling of Clinical Isolates of A. baumannii
row,SMILES,Antibiotic susceptibility
1,"C[C@@H](O)[C@H]1C(=O)N2C(C(=O)O)=C(S[C@@H]3CN[C@H](C(=O)N(C)C)C3)[C@H](C)[C@H]12 [MEM, Meropenem]",S

# Test system: A. baumannii reference strain 15839
# Test: Antibiotic susceptibility profile
# Format: cell-based, Acinetobacter baumannii
# Set-up: key: Resistance; Intermediate; Susceptible
# Settings: strain 15839 (ATCC)
# Excerpt: as §1, §2
row,SMILES,Antibiotic susceptibility
1,"C[C@@H](O)[C@H]1C(=O)N2C(C(=O)O)=C(S[C@@H]3CN[C@H](C(=O)N(C)C)C3)[C@H](C)[C@H]12 [MEM, Meropenem]",S

# Test system: A. baumannii clinical isolate NY E
# Test: Antibiotic susceptibility profile
# Format: cell-based, Acinetobacter baumannii
# Set-up: key: Resistance; Intermediate; Susceptible
# Settings: not given
# Excerpt: as §1, §2
row,SMILES,Antibiotic susceptibility
1,"C[C@@H](O)[C@H]1C(=O)N2C(C(=O)O)=C(S[C@@H]3CN[C@H](C(=O)N(C)C)C3)[C@H](C)[C@H]12 [MEM, Meropenem]",R

# Test system: A. baumannii clinical isolate LAC 09
# Test: Antibiotic susceptibility profile
# Format: cell-based, Acinetobacter baumannii
# Set-up: key: Resistance; Intermediate; Susceptible
# Settings: not given
# Excerpt: as §1, §2
row,SMILES,Antibiotic susceptibility
1,"C[C@@H](O)[C@H]1C(=O)N2C(C(=O)O)=C(S[C@@H]3CN[C@H](C(=O)N(C)C)C3)[C@H](C)[C@H]12 [MEM, Meropenem]",R

# Test system: A. baumannii clinical isolate LAC 20
# Test: Antibiotic susceptibility profile
# Format: cell-based, Acinetobacter baumannii
# Set-up: key: Resistance; Intermediate; Susceptible
# Settings: not given
# Excerpt: as §1, §2
row,SMILES,Antibiotic susceptibility
1,"C[C@@H](O)[C@H]1C(=O)N2C(C(=O)O)=C(S[C@@H]3CN[C@H](C(=O)N(C)C)C3)[C@H](C)[C@H]12 [MEM, Meropenem]",I

# Test system: A. baumannii clinical isolate LAC 03
# Test: Antibiotic susceptibility profile
# Format: cell-based, Acinetobacter baumannii
# Set-up: key: Resistance; Intermediate; Susceptible
# Settings: not given
# Excerpt: as §1, §2
row,SMILES,Antibiotic susceptibility
1,"C[C@@H](O)[C@H]1C(=O)N2C(C(=O)O)=C(S[C@@H]3CN[C@H](C(=O)N(C)C)C3)[C@H](C)[C@H]12 [MEM, Meropenem]",I

# Test system: A. baumannii clinical isolate NY H
# Test: Antibiotic susceptibility profile
# Format: cell-based, Acinetobacter baumannii
# Set-up: key: Resistance; Intermediate; Susceptible
# Settings: not given
# Excerpt: as §1, §2
row,SMILES,Antibiotic susceptibility
1,"C[C@@H](O)[C@H]1C(=O)N2C(C(=O)O)=C(S[C@@H]3CN[C@H](C(=O)N(C)C)C3)[C@H](C)[C@H]12 [MEM, Meropenem]",R

# Test system: A. baumannii clinical isolate LAC 01
# Test: Antibiotic susceptibility profile
# Format: cell-based, Acinetobacter baumannii
# Set-up: key: Resistance; Intermediate; Susceptible
# Settings: not given
# Excerpt: as §1, §2
row,SMILES,Antibiotic susceptibility
1,"C[C@@H](O)[C@H]1C(=O)N2C(C(=O)O)=C(S[C@@H]3CN[C@H](C(=O)N(C)C)C3)[C@H](C)[C@H]12 [MEM, Meropenem]",R

# Test system: A. baumannii clinical isolate LAC 02
# Test: Antibiotic susceptibility profile
# Format: cell-based, Acinetobacter baumannii
# Set-up: key: Resistance; Intermediate; Susceptible
# Settings: not given
# Excerpt: as §1, §2
row,SMILES,Antibiotic susceptibility
1,"C[C@@H](O)[C@H]1C(=O)N2C(C(=O)O)=C(S[C@@H]3CN[C@H](C(=O)N(C)C)C3)[C@H](C)[C@H]12 [MEM, Meropenem]",R

# Test system: A. baumannii clinical isolate LAC 10
# Test: Antibiotic susceptibility profile
# Format: cell-based, Acinetobacter baumannii
# Set-up: key: Resistance; Intermediate; Susceptible
# Settings: not given
# Excerpt: as §1, §2
row,SMILES,Antibiotic susceptibility
1,"C[C@@H](O)[C@H]1C(=O)N2C(C(=O)O)=C(S[C@@H]3CN[C@H](C(=O)N(C)C)C3)[C@H](C)[C@H]12 [MEM, Meropenem]",R

# Test system: A. baumannii clinical isolate LAC 06
# Test: Antibiotic susceptibility profile
# Format: cell-based, Acinetobacter baumannii
# Set-up: key: Resistance; Intermediate; Susceptible
# Settings: not given
# Excerpt: as §1, §2
row,SMILES,Antibiotic susceptibility
1,"C[C@@H](O)[C@H]1C(=O)N2C(C(=O)O)=C(S[C@@H]3CN[C@H](C(=O)N(C)C)C3)[C@H](C)[C@H]12 [MEM, Meropenem]",S

# Test system: A. baumannii clinical isolate LAC 14
# Test: Antibiotic susceptibility profile
# Format: cell-based, Acinetobacter baumannii
# Set-up: key: Resistance; Intermediate; Susceptible
# Settings: not given
# Excerpt: as §1, §2
row,SMILES,Antibiotic susceptibility
1,"C[C@@H](O)[C@H]1C(=O)N2C(C(=O)O)=C(S[C@@H]3CN[C@H](C(=O)N(C)C)C3)[C@H](C)[C@H]12 [MEM, Meropenem]",S

# Test system: A. baumannii reference strain SDF
# Test: Antibiotic susceptibility profile
# Format: cell-based, Acinetobacter baumannii
# Set-up: key: Resistance; Intermediate; Susceptible
# Settings: not given
# Excerpt: as §1, §2
row,SMILES,Antibiotic susceptibility
1,"C[C@@H](O)[C@H]1C(=O)N2C(C(=O)O)=C(S[C@@H]3CN[C@H](C(=O)N(C)C)C3)[C@H](C)[C@H]12 [MEM, Meropenem]",S

# Test system: A. baumannii clinical isolate NY D
# Test: Antibiotic susceptibility profile
# Format: cell-based, Acinetobacter baumannii
# Set-up: key: Resistance; Intermediate; Susceptible
# Settings: not given
# Excerpt: as §1, §2
row,SMILES,Antibiotic susceptibility
1,"C[C@@H](O)[C@H]1C(=O)N2C(C(=O)O)=C(S[C@@H]3CN[C@H](C(=O)N(C)C)C3)[C@H](C)[C@H]12 [MEM, Meropenem]",R

# Test system: A. baumannii clinical isolate LAC 15
# Test: Antibiotic susceptibility profile
# Format: cell-based, Acinetobacter baumannii
# Set-up: key: Resistance; Intermediate; Susceptible
# Settings: not given
# Excerpt: as §1, §2
row,SMILES,Antibiotic susceptibility
1,"C[C@@H](O)[C@H]1C(=O)N2C(C(=O)O)=C(S[C@@H]3CN[C@H](C(=O)N(C)C)C3)[C@H](C)[C@H]12 [MEM, Meropenem]",R

# Test system: A. baumannii clinical isolate NY C
# Test: Antibiotic susceptibility profile
# Format: cell-based, Acinetobacter baumannii
# Set-up: key: Resistance; Intermediate; Susceptible
# Settings: not given
# Excerpt: as §1, §2
row,SMILES,Antibiotic susceptibility
1,"C[C@@H](O)[C@H]1C(=O)N2C(C(=O)O)=C(S[C@@H]3CN[C@H](C(=O)N(C)C)C3)[C@H](C)[C@H]12 [MEM, Meropenem]",R

# Test system: A. baumannii clinical isolate LAC 04
# Test: Antibiotic susceptibility profile
# Format: cell-based, Acinetobacter baumannii
# Set-up: key: Resistance; Intermediate; Susceptible
# Settings: not given
# Excerpt: as §1, §2
row,SMILES,Antibiotic susceptibility
1,"C[C@@H](O)[C@H]1C(=O)N2C(C(=O)O)=C(S[C@@H]3CN[C@H](C(=O)N(C)C)C3)[C@H](C)[C@H]12 [MEM, Meropenem]",S
